According to ChEMBL document CHEMBL5500417, “Discovery of Novel 2-Oxoacetamide Derivatives as B3GAT3 Inhibitors for the Treatment of Hepatocellular Carcinoma” (J Med Chem, 2024):

Experiments:
[1] = test system: HCCLM3; assay: cells; settings: Homo sapiens, HCCLM3, 72 h
Description: Antitumor activity against human HCCLM3 cells assessed as inhibition of cell growth measured after 72 hrs by CCK-8 assay

[2] = test system: MHCC97H; assay: cells; settings: Homo sapiens, 72 h
Description: Antitumor activity against human MHCC97H cells assessed as inhibition of cell growth measured after 72 hrs by CCK-8 assay

[3] = molecular target: T1, Galactosylgalactosylxylosylprotein 3-beta-glucuronosyltransferase 3 (Homo sapiens, UniProt O94766); assay: Binding affinity to CM5 sensor chip immobilized human B3GAT3 assessed as dissociation constant by SPR analysis
T1 sequence (O94766 whole entry): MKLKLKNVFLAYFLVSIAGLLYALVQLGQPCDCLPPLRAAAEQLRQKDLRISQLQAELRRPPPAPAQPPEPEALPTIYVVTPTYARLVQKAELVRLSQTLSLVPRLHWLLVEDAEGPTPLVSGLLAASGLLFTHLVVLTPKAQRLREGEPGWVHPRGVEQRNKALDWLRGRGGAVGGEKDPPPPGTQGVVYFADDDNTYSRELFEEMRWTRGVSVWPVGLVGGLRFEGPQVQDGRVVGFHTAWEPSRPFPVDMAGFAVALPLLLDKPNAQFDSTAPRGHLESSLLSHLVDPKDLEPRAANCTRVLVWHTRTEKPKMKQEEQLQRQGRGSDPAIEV

[4] = test system: MHCC97H; assay: In vivo-antitumor activity against human MHCC97H cells xenografted BALB/c mouse model assessed as tumor growth inhibitor at 5 mg/kg, IG once daily measured after 31 days relative to control; settings: po, 744 h, read-out: TGI
[5] = test system: HCCLM3; assay: In vivo-antitumor activity against human HCCLM3 cells xenografted BALB/c mouse model assessed as reduction in tumor weight at 5 mg/kg, IG once daily measured after 31 days relative to control; settings: HCCLM3, po, 744 h, read-out: INH

Row | Structure (SMILES) | IC50 [1] [µM] | IC50 [2] [µM] | Kd [3] [µM] | inhibition in vivo at 5 mg/kg [4] [%] | inhibition in vivo at 5 mg/kg [5] [%]
1 | Cc1ccc(C(=O)N2[C@@H]3CC[C@H]2CN(C(=O)C(=O)c2c[nH]c4ccc(Br)cc24)C3)c(Cl)c1 | 26.7 | 18.5 | – | – | –
2 | Cc1ccc(N2CCC(NC(=O)C(=O)c3c[nH]c4ccc(O)cc34)C2=O)c(Cl)c1 (centres undefined) | > 80 | 72.2 | – | – | –
3 | Cc1ccc(C(=O)N2CCN(C(=O)C(=O)c3c[nH]c4ccc(Br)cc34)CC2)c(Cl)c1 | 25.4 | 16.3 | – | – | –
4 | Cc1ccc(N2CCC(NC(=O)C(=O)c3c[nH]c4ccc(C(=O)O)cc34)C2=O)c(Cl)c1 (centres undefined) | > 80 | > 80 | – | – | –
5 | Cc1ccc(N2CCC(NC(=O)C(=O)Nc3ccc4c(c3)C(C)(C)c3ccccc3-4)C2=O)c(Cl)c1 (centres undefined) | > 80 | 9.7 | – | – | –
6 | Cc1ccc(N2CCC(NC(=O)C(=O)c3c[nH]c4ccc(N)cc34)C2=O)c(Cl)c1 (centres undefined) | > 80 | > 80 | – | – | –
7 | Cc1ccc(C(=O)N(C)C2CCN(C(=O)C(=O)c3c[nH]c4ccc(Br)cc34)CC2)c(Cl)c1 | 22.2 | 11.8 | – | – | –
8 | Cc1ccc(C(=O)N2CCC(C)(NC(=O)C(=O)c3c[nH]c4ccc(Br)cc34)CC2)c(Cl)c1 | 22.2 | 21.3 | – | – | –
9 | Cc1ccc(N2CCC(NC(=O)C(=O)c3c[nH]c4ccc(Br)cc34)C2=O)c(Cl)c1 (centres undefined) | 15.8 | 6.19 | 113 | – | –
10 | Cc1ccc(N2CCC(NC(=O)C(=O)N3CCCc4ccccc43)C2=O)c(Cl)c1 (centres undefined) | > 80 | > 80 | – | – | –
11 | Cc1ccc(N2CCC(NC(=O)C(=O)c3c[nH]c4ccc(Br)cc34)C2=O)cc1 (centres undefined) | > 80 | > 80 | – | – | –
12 | Cc1ccc(N2CCC(NC(=O)CC(=O)Nc3ccc4c(c3)Cc3ccccc3-4)C2=O)c(Cl)c1 (centres undefined) | 57.3 | > 80 | – | – | –
13 | Cc1ccc(C(=O)N2CCC(NC(=O)C(=O)c3c[nH]c4ccc(Br)cc34)CC2)c(Cl)c1 | 1530 | 28.1 | – | – | –
14 | COc1ccc2[nH]cc(C(=O)C(=O)NC3CCN(c4ccc(C)cc4Cl)C3=O)c2c1 (centres undefined) | 34.7 | 37.8 | – | – | –
15 | COC(=O)c1ccc2c(C(=O)C(=O)NC3CCN(c4ccc(C)cc4Cl)C3=O)c[nH]c2c1 (centres undefined) | 54.8 | 46.8 | – | – | –
16 | Cc1ccc(C(=O)NC2CCN(C(=O)C(=O)c3c[nH]c4ccc(Br)cc34)CC2)c(Cl)c1 | 60.8 | 61.5 | – | – | –
17 | O=C(NC1CCN(c2ccc(F)cc2)C1=O)C(=O)c1c[nH]c2ccc(Br)cc12 (centres undefined) | 24.9 | 11.8 | – | – | –
18 | Cc1ccc(C(=O)NC2(C)CCN(C(=O)C(=O)c3c[nH]c4ccc(Br)cc34)CC2)c(Cl)c1 | 59.2 | 27.3 | – | – | –
19 | Cc1ccc(N2CCC(NC(=O)C(=O)c3c[nH]c4ccccc34)C2=O)c(Cl)c1 (centres undefined) | 60 | 52.7 | – | – | –
20 | Cc1ccc(N2CCC(NC(=O)C(=O)c3c[nH]c4ccc(F)cc34)C2=O)c(Cl)c1 (centres undefined) | 44.3 | 35.1 | – | – | –

Row | Structure (SMILES) | IC50 [1] [µM] | IC50 [2] [µM] | Kd [3] [µM] | inhibition in vivo at 5 mg/kg [4] [%] | inhibition in vivo at 5 mg/kg [5] [%]
21 | Cc1ccc(N2CCC(NC(=O)C(=O)NC3CCc4ccccc43)C2=O)c(Cl)c1 (centres undefined) | 61.4 | > 80 | – | – | –
22 | O=C(NC1CCN(c2ccccc2)C1=O)C(=O)c1c[nH]c2ccc(Br)cc12 (centres undefined) | > 80 | > 80 | – | – | –
23 | Cc1ccc(N2CCC(NC(=O)C(=O)c3c[nH]c4cc(C(=O)O)ccc34)C2=O)c(Cl)c1 (centres undefined) | > 80 | > 80 | – | – | –
24 | Cc1ccc(C(=O)N2CCCC(NC(=O)C(=O)c3c[nH]c4ccc(Br)cc34)C2)c(Cl)c1 (centres undefined) | 31 | 17 | – | – | –
25 | Cc1ccc(N2CCC(NC(=O)C(=O)c3c[nH]c4ccc(C)cc34)C2=O)c(Cl)c1 (centres undefined) | 53.9 | 52.8 | – | – | –
26 | Cc1ccc(N2CCC(NC(=O)C(=O)c3c[nH]c4ccc(Cl)cc34)C2=O)c(Cl)c1 (centres undefined) | 31 | 18.4 | – | – | –
27 | Cc1ccc(N2CCC(NC(=O)C(=O)Nc3ccc4c(c3)Cc3ccccc3-4)C2=O)c(Cl)c1 (centres undefined) | 14.5 | 14.3 | 291 | – | –
28 | Cc1ccc(N2CCC(NC(=O)C(=O)Nc3ccc4c(c3)OCO4)C2=O)c(Cl)c1 (centres undefined) | 24.7 | 25.7 | – | – | –
29 | Cc1ccc(N2CCC(NC(=O)C(=O)c3c[nH]c4ccc(Br)cc34)C2=O)cc1Cl (centres undefined) | > 80 | 12 | – | – | –
30 | Cc1ccc(C(=O)NCC2CCN(C(=O)C(=O)c3c[nH]c4ccc(Br)cc34)CC2)c(Cl)c1 | 23.6 | 12.9 | – | – | –
31 | Cc1ccc(N2CCC(NC(=O)C(=O)Nc3ccc4c(c3)CCC4)C2=O)c(Cl)c1 (centres undefined) | 11.7 | 3.51 | 206 | – | –
32 | Cc1ccc(N2CCC(NC(=O)CC(=O)Nc3ccc(-c4ccccc4)cc3)C2=O)c(Cl)c1 (centres undefined) | 60.4 | 54.7 | – | – | –
33 | Cc1ccc(C(=O)NC2CCN(C(=O)C(=O)c3c[nH]c4ccc(Br)cc34)C2)c(Cl)c1 (centres undefined) | 30.8 | 19.4 | – | – | –
34 | O=C(NC1CCN(c2ccc(OC(F)(F)F)cc2)C1=O)C(=O)c1c[nH]c2ccc(Br)cc12 (centres undefined) | 18.6 | 15.3 | – | – | –
35 | Cc1ccc(N2CCC(NC(=O)C(=O)c3c[nH]c4ccc(C#N)cc34)C2=O)c(Cl)c1 (centres undefined) | 55.8 | 33.7 | – | – | –
36 | Cc1ccc(C(=O)N2CCC(NC(=O)C(=O)c3c[nH]c4ccc(Br)cc34)C2)c(Cl)c1 (centres undefined) | 21.3 | 13 | – | – | –
37 | Cc1ccc(N2CCC(NC(=O)C(=O)Nc3ccc(-c4ccccc4)cc3)C2=O)c(Cl)c1 (centres undefined) | 17.7 | 5.59 | 289 | – | –
38 | Cc1ccc(N2CCC(NC(=O)C(=O)Nc3ccc4c(c3)OCCO4)C2=O)c(Cl)c1 (centres undefined) | 12.2 | 14.5 | – | – | –
39 | COc1cc2nccc(Oc3ccc(NC(=O)NC4CC4)c(Cl)c3)c2cc1C(N)=O [LENVATINIB] | 27.8 | > 80 | – | 85 | 94.6
